Test results: PubChem BioAssay (NCI)
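Values below derive from 48-hour exposures of cells grown in 96-well plates, with endpoints linearly interpolated between the two concentrations bracketing the appropriate inhibition level. At the GI50, growth is halved. The concentration for full growth arrest is given as TGI.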

Assays:
Assay in all cases: inhibition of tumour cell growth, NCI panel, 48 h
[1] = tested on: NCI-H226 lung
[2] = tested on: TK-10 renal
[3] = tested on: HCT-116 colon
[4] = tested on: NCI-H460 lung
[5] = tested on: HOP-62 NSCLC
[6] = tested on: MALME-3M melanoma
[7] = tested on: K-562 leukemia
[8] = tested on: CCRF-CEM leukemia
[9] = tested on: HCC-2998 colon
[10] = tested on: UACC-257 melanoma
[11] = tested on: HL-60(TB) leukemia
[12] = tested on: HT29 colon
[13] = tested on: MOLT-4 leukemia
[14] = tested on: ACHN renal
[15] = tested on: T-47D breast
[16] = tested on: RXF 393 renal
[17] = tested on: MCF7 breast
[18] = tested on: DU-145 prostate
[19] = tested on: CAKI-1 renal
[20] = tested on: MDA-MB-231 breast
[21] = tested on: SW-620 colon
[22] = tested on: IGROV1 ovarian
[23] = tested on: SK-MEL-5 melanoma
[24] = tested on: UO-31 renal
[25] = tested on: KM12 colon
[26] = tested on: SK-MEL-2 melanoma
[27] = tested on: UACC-62 melanoma
[28] = tested on: 786-0 renal
[29] = tested on: SNB-75 CNS
[30] = tested on: SN12C renal
[31] = tested on: OVCAR-4 ovarian
[32] = tested on: SF-539 CNS
[33] = tested on: SF-268 CNS
[34] = tested on: EKVX NSCLC
[35] = tested on: A549 NSCLC
[36] = tested on: NCI-H23 lung
[37] = tested on: SK-OV-3 ovarian
[38] = tested on: HOP-92 NSCLC
[39] = tested on: COLO 205 colon
[40] = tested on: PC-3 prostate
[41] = tested on: SK-MEL-28 melanoma
[42] = tested on: NCI-H522 lung
[43] = tested on: BT-549 breast
[44] = tested on: RPMI-8226 leukemia
[45] = tested on: HCT-15 colon
[46] = tested on: HS 578T breast
[47] = tested on: M14 melanoma
[48] = tested on: NCI/ADR-RES ovarian
[49] = tested on: SR leukemia
[50] = tested on: SNB-19 CNS
[51] = tested on: OVCAR-8 ovarian
[52] = tested on: MDA-MB-435
[53] = tested on: OVCAR-3 ovarian
[54] = tested on: SF-295 CNS
[55] = tested on: OVCAR-5 ovarian
[56] = tested on: U251 CNS
[57] = tested on: A498 renal
[58] = tested on: LOX IMVI melanoma

CC1=C(Nc2ccc(N3CCN(C)CC3)cc2)C(=O)c2cncnc2C1=O
GI50 [1]: 15.2 µM
TGI [1]: 35.7 µM
GI50 [2]: 28.5 µM
TGI [2]: 58.1 µM
GI50 [3]: 2.48 µM
TGI [3]: 6.13 µM
GI50 [4]: 3.31 µM
TGI [4]: 11.4 µM
GI50 [5]: 19.2 µM
TGI [5]: 60.4 µM
GI50 [6]: 8.96 µM
TGI [6]: 21.7 µM
GI50 [7]: 2.78 µM
TGI [7]: > 100 µM
GI50 [8]: 2.6 µM
TGI [8]: > 100 µM
GI50 [9]: 17.4 µM
TGI [9]: 36 µM
GI50 [10]: 2.34 µM
TGI [10]: 6.42 µM
GI50 [11]: 2.5 µM
TGI [11]: 6.11 µM
GI50 [12]: 10.2 µM
TGI [12]: 61.8 µM
GI50 [13]: 2.01 µM
TGI [13]: 6.39 µM
GI50 [14]: 2.31 µM
TGI [14]: 5.88 µM
GI50 [15]: 1.78 µM
TGI [15]: 4.26 µM
GI50 [16]: 5.71 µM
TGI [16]: 19.4 µM
GI50 [17]: 1.92 µM
TGI [17]: 4.19 µM
GI50 [18]: 4.34 µM
TGI [18]: 16.9 µM
GI50 [19]: 3.27 µM
TGI [19]: 14.2 µM
GI50 [20]: 2.67 µM
TGI [20]: 7.78 µM
GI50 [21]: 2.54 µM
TGI [21]: 8.04 µM
GI50 [22]: 2.24 µM
TGI [22]: 5.17 µM
GI50 [23]: 14.4 µM
TGI [23]: 27.6 µM
GI50 [24]: 13.9 µM
TGI [24]: 33.5 µM
GI50 [25]: 10.1 µM
TGI [25]: 30.4 µM
GI50 [26]: 16 µM
TGI [26]: 42 µM
GI50 [27]: 2.38 µM
TGI [27]: 5.64 µM
GI50 [28]: 20.4 µM
TGI [28]: 52.5 µM
GI50 [29]: 14.7 µM
TGI [29]: 30 µM
GI50 [30]: 2.02 µM
TGI [30]: 4.48 µM
GI50 [31]: 1.09 µM
TGI [31]: 2.28 µM
GI50 [32]: 13.5 µM
TGI [32]: 26.9 µM
GI50 [33]: 16 µM
TGI [33]: 50.4 µM
GI50 [34]: 5.63 µM
TGI [34]: 19.1 µM
GI50 [35]: 3.96 µM
TGI [35]: 17.6 µM
GI50 [36]: 6.26 µM
TGI [36]: 32.7 µM
GI50 [37]: 16.7 µM
TGI [37]: 35.3 µM
GI50 [38]: 2.12 µM
TGI [38]: 4.37 µM
GI50 [39]: 15.8 µM
TGI [39]: 33.1 µM
GI50 [40]: 3.05 µM
TGI [40]: 11.9 µM
GI50 [41]: 17.1 µM
TGI [41]: 43.3 µM
GI50 [42]: 16.1 µM
TGI [42]: 39.3 µM
GI50 [43]: 17.1 µM
TGI [43]: 32.5 µM
GI50 [44]: 3.26 µM
TGI [44]: 11.7 µM
GI50 [45]: 12.9 µM
TGI [45]: 41 µM
GI50 [46]: 19.5 µM
TGI [46]: 55.1 µM
GI50 [47]: 14.9 µM
TGI [47]: 32.2 µM
GI50 [48]: 3.09 µM
TGI [48]: 20.3 µM
GI50 [49]: 3.22 µM
TGI [49]: > 100 µM
GI50 [50]: 17.2 µM
TGI [50]: 37.2 µM
GI50 [51]: 2.28 µM
TGI [51]: 6.28 µM
GI50 [52]: 1.87 µM
TGI [52]: 3.4 µM
GI50 [53]: 1.97 µM
TGI [53]: 4.28 µM
GI50 [54]: 11.9 µM
TGI [54]: 28.1 µM
GI50 [55]: 3.66 µM
TGI [55]: 16.9 µM

CN1CCN(CCCOc2cccc3nc(Nc4ccc(Cl)c(C(F)(F)F)c4)ccc23)CC1
GI50 [1]: 2.07 µM
TGI [1]: 4.89 µM
GI50 [2]: 1.8 µM
TGI [2]: 3.44 µM
GI50 [56]: 1.49 µM
TGI [56]: 3.23 µM
GI50 [3]: 1.5 µM
TGI [3]: 2.84 µM
GI50 [4]: 1.72 µM
TGI [4]: 3.52 µM
GI50 [5]: 1.7 µM
TGI [5]: 3.32 µM
GI50 [6]: 1.75 µM
TGI [6]: 3.45 µM
GI50 [7]: 1.62 µM
TGI [7]: 3.34 µM
GI50 [9]: 1.91 µM
TGI [9]: 3.44 µM
GI50 [57]: 1.68 µM
TGI [57]: 3.54 µM
GI50 [10]: 1.72 µM
TGI [10]: 3.5 µM
GI50 [11]: 1.87 µM
TGI [11]: 4.03 µM
GI50 [14]: 1.59 µM
TGI [14]: 3.07 µM
GI50 [15]: 1.97 µM
TGI [15]: 4.52 µM
GI50 [16]: 1.63 µM
TGI [16]: 3.44 µM
GI50 [17]: 1.41 µM
TGI [17]: 2.99 µM
GI50 [18]: 1.81 µM
TGI [18]: 3.27 µM
GI50 [19]: 1.67 µM
TGI [19]: 3.19 µM
GI50 [20]: 1.47 µM
TGI [20]: 3.1 µM
GI50 [21]: 1.89 µM
TGI [21]: 3.83 µM
GI50 [22]: 1.85 µM
TGI [22]: 3.6 µM
GI50 [23]: 1.69 µM
TGI [23]: 3.13 µM
GI50 [24]: 1.46 µM
TGI [24]: 2.88 µM
GI50 [25]: 1.74 µM
TGI [25]: 3.24 µM
GI50 [26]: 2.06 µM
TGI [26]: 4.49 µM
GI50 [27]: 1.72 µM
TGI [27]: 3.27 µM
GI50 [28]: 1.5 µM
TGI [28]: 2.89 µM
GI50 [29]: 1.52 µM
TGI [29]: 3.78 µM
GI50 [30]: 1.6 µM
TGI [30]: 3.38 µM
GI50 [31]: 2.73 µM
TGI [31]: 7.45 µM
GI50 [32]: 1.58 µM
TGI [32]: 3.02 µM
GI50 [33]: 1.85 µM
TGI [33]: 3.66 µM
GI50 [34]: 1.82 µM
TGI [34]: 3.98 µM
GI50 [35]: 1.72 µM
TGI [35]: 3.66 µM
GI50 [36]: 1.78 µM
TGI [36]: 3.42 µM
GI50 [37]: 1.99 µM
TGI [37]: 4.35 µM
GI50 [38]: 1.02 µM
TGI [38]: 3.69 µM
GI50 [39]: 1.72 µM
TGI [39]: 3.35 µM
GI50 [40]: 1.57 µM
TGI [40]: 3.03 µM
GI50 [41]: 1.39 µM
TGI [41]: 2.81 µM
GI50 [42]: 1.83 µM
TGI [42]: 3.64 µM
GI50 [43]: 1.71 µM
TGI [43]: 3.31 µM
GI50 [58]: 1.56 µM
TGI [58]: 3.07 µM
GI50 [45]: 1.22 µM
TGI [45]: 2.64 µM
GI50 [46]: 2 µM
TGI [46]: 4.66 µM
GI50 [47]: 1.81 µM
TGI [47]: 3.48 µM
GI50 [48]: 1.73 µM
TGI [48]: 3.37 µM
GI50 [49]: 0.54 µM
TGI [49]: 3.4 µM
GI50 [50]: 1.64 µM
TGI [50]: 3.14 µM
GI50 [52]: 1.68 µM
TGI [52]: 3.23 µM
GI50 [53]: 1.81 µM
TGI [53]: 3.31 µM
GI50 [54]: 1.8 µM
TGI [54]: 3.38 µM
GI50 [55]: 1.85 µM
TGI [55]: 3.41 µM
